Data reported in patent EP4741392A1, “1H-PYRAZOLO[4,3-C]PYRIDINE COMPOUND, AND COMPOSITION THEREOF AND USE THEREOF” (Shenzhen TargetRx Co., Ltd., priority 2023, dated 2025).

Tests used:
Type in all cases: cell-based
NIH/3T3 BTK C481S cells = assay: Phosphor-BTK(Y223) assay, adherent cells; details: Mus musculus, NIH3T3, phosphorylated BTK Y223, NIH/3T3 BTK C481S cells; read-out: NIH/3T3 BTK-C481S pBTK
Method: (§1) The purpose of this assay was to simply, quickly and directly detect the level of endogenous BTK phosphorylation in cells.
(§2) The steps for handling adherent cells were as follows: • 1) NIH/3T3 BTK WT cells (7.5 k/well) and NIH/3T3 BTK C481S cells (10 k/well) were plated in a 96-well plate, respectively, and cultured at 37 °C and 5% CO2 overnight. • 2) A 3-fold final concentration gradient dilution of a compound was prepared, and 50 µL of it was taken and added to 100 µL of cell culture. 0.5% DMSO was used as a positive control for cell growth. • 3) The plate was incubated at 37 °C and 5% CO2 for 0.5 h. • 4) Na3VO4 at a final concentration of 1mM was added, and the plate was incubated at 37 °C and 5% CO2 for 2 hours. • 5) During the incubation, the following reagents were prepared: • 1x added lysis buffer: 3 vol ddH2O + 1 vol 4x lysis buffer + 100x blocking reagent. • p-BTK (Y223) cryptate-antibody and p-BTK (Y223) d2-antibody working solutions: 1 volume of each cryopreserved antibody (stored at - 20 °C) was added to 19 times the volume of assay buffer (stored at 4 °C). • 6) After the incubation was completed, the medium was removed and 50 µL of 1x added lysis buffer was added. The plate was centrifuged at 500 rpm at room temperature for 30 min. • 7) The lysate was mixed well and 16 µL of it was transferred to a 384-well plate. 1 × added lysis buffer was used as a blank control. • 8) 4 µL of pre-mixed working solutions of the two antibodies (cryptate Ab:d2 Ab = 1:1) was added, and the plate was sealed. • 9) The plate was incubated at room temperature overnight. 10) The plate was read at 665nm and 620nm using Biotek cytation3.0 microplate reader, and the ratio of 665/620nm of each well was calculated.
(§3) The IC50 (half-maximal phosphorylation inhibitory concentration) of the phosphorylated BTK Y223 of the compound was obtained using the following nonlinear fitting formula: Y = Bottom + (Top−Bottom)/(1+10^(∧)((LogIC50−X)*HillSlope)) [formula] • X: Log value of the compound concentration • Y: Inhibition rate (% inhibition) • Top: Maximum response • Bottom: Baseline response • HillSlope: Slope of the curve
(§4) The formula for calculating cell phosphorylation inhibition rate (inhibition rate %) was: Inhibition rate% = 1−(eachconcentrationwell-blankwell)/(positivecontrolwell−blankwell) [formula]

NIH/3T3 BTK WT cells = assay: Phosphor-BTK(Y223) assay, adherent cells; details: Mus musculus, NIH3T3, phosphorylated BTK Y223, NIH/3T3 BTK WT cells; read-out: NIH/3T3 BTK-WT pBTK
Method: as §1, §2, §3, §4

Ramos cells with BTK WT = assay: Phosphor-BTK(Y223) assay, suspended cells; details: Homo sapiens, Ramos, phosphorylated BTK Y223, Ramos cells with BTK WT
Method: as §1
The steps for handling suspended cells were as follows: • 1) Ramos cells with BTK WT (2.5 k/well), BTK C481S (2.5 k/well), or BTK T474I (2.5 k/well) were plated in a 96-well plate, respectively. A compound of different concentration gradients was added using Tecan D300e, and the plate was incubated at 37 °C and 5% CO2 for 2 hours. • 2) 8.33 µL of 20 mM Na3VO4 was added to bring the final concentration to 5 mM, and the plate was incubated at 37 °C and 5% CO2 for 3 h. • 3) During the incubation, the following reagents were prepared: • 4x added lysis buffer: 24 vol 4x lysis buffer + 1 vol 25x blocking reagent. • p-BTK (Y223) cryptate-antibody and p-BTK (Y223) d2-antibody working solutions: 1 volume of each cryopreserved antibody (stored at - 20 °C) was added to 38 times the volume of assay buffer (stored at 4 °C), and mixed well. • 4) After the incubation was completed, 11.1 µL of 4x added lysis buffer was directly added. The plate was shaken at 800 rpm at room temperature for 30 min. • 5) The lysate was mixed well and 16 µL of it was transferred to a 384-well plate. 1 × added lysis buffer was used as a blank control. • 6) 4 µL of pre-mixed working solutions of the two antibodies (cryptate Ab:d2 Ab = 1:1) was added, and the plate was sealed. • 7) The plate was incubated at room temperature overnight. • 8) The plate was read at 665nm and 620nm using Biotek cytation3.0 microplate reader, and the ratio of 665/620nm of each well was calculated. Data analysis: IC50 was calculated using GraphPad Prism 7.0 software.
as §3, §4

COc1ccc(F)cc1C(=O)NCc1ccc(-c2nc(C(C)C(F)(F)F)c(Br)c3[nH]nc(N)c23)cc1 (centres unmarked) [Example 4, N-(4-(3-amino-7-bromo-6-(1,1,1-trifluoropropan-2-yl)-1H-pyrazolo[4,3-c]pyridin-4-yl)benzyl)-5-fluoro-2-methoxybenzamide]
IC50 (NIH/3T3 BTK C481S cells): > 50 nM | IC50 (NIH/3T3 BTK WT cells): > 50 nM | IC50 (Ramos cells with BTK WT): > 50 nM

COc1ccc(F)cc1C(=O)NCc1ccc(-c2nc(C(C)C(F)(F)F)c(-c3ccccn3)c3[nH]nc(N)c23)cc1 (centres unmarked) [Example 5, N-(4-(3-amino-7-(pyridin-2-yl)-6-(1,1,1-trifluoropropan-2-yl)-1H-pyrazolo[4,3-c]pyridin-4-yl)benzyl)-5-fluoro-2-methoxybenzamide]
IC50 (NIH/3T3 BTK C481S cells): > 50 nM | IC50 (NIH/3T3 BTK WT cells): > 50 nM | IC50 (Ramos cells with BTK WT): > 50 nM

COc1ccc(F)cc1C(=O)NCc1ccc(-c2nc(C(C)C(F)(F)F)c(-c3cnccn3)c3[nH]nc(N)c23)cc1 (centres unmarked) [Example 8, N-(4-(3-amino-7-(pyrazin-2-yl)-6-(1,1,1-trifluoropropan-2-yl)-1H-pyrazolo[4,3-c]pyridin-4-yl)benzyl)-5-fluoro-2-methoxybenzamide]
IC50 (NIH/3T3 BTK C481S cells): > 50 nM | IC50 (NIH/3T3 BTK WT cells): > 50 nM | IC50 (Ramos cells with BTK WT): > 50 nM

COc1ccc(F)cc1C(=O)NCc1ccc(-c2nc(C(C)C(F)(F)F)c(-c3cncnc3)c3[nH]nc(N)c23)cc1 (centres unmarked) [Example 10, N-(4-(3-amino-7-(pyrimidin-5-yl)-6-(1,1,1-trifluoropropan-2-yl)-1H-pyrazolo[4,3-c]pyridin-4-yl)benzyl)-5-fluoro-2-methoxybenzamide]
IC50 (NIH/3T3 BTK C481S cells): > 50 nM | IC50 (NIH/3T3 BTK WT cells): > 50 nM | IC50 (Ramos cells with BTK WT): > 50 nM

COc1ccc(F)cc1C(=O)NCc1ccc(-c2nc(C(C)C(F)(F)F)c(-c3ccnnc3)c3[nH]nc(N)c23)cc1 (centres unmarked) [Example 11, N-(4-(3-amino-7-(pyridazin-4-yl)-6-(1,1,1-trifluoropropan-2-yl)-1H-pyrazolo[4,3-c]pyridin-4-yl)benzyl)-5-fluoro-2-methoxybenzamide]
IC50 (NIH/3T3 BTK C481S cells): > 50 nM | IC50 (NIH/3T3 BTK WT cells): > 50 nM | IC50 (Ramos cells with BTK WT): > 50 nM

COc1ccc(F)cc1C(=O)NCc1ccc(-c2nc(C(C)C(F)(F)F)c(-c3ccc(C(F)(F)F)cn3)c3[nH]nc(N)c23)cc1 (centres unmarked) [Example 12, N-(4-(3-amino-7-(5-(trifluoromethyl)pyridin-2-yl)-6-(1,1,1-trifluoropropan-2-yl)-1H-pyrazolo[4,3-c]pyridin-4-yl)benzyl)-5-fluoro-2-methoxybenzamide]
IC50 (NIH/3T3 BTK C481S cells): > 50 nM | IC50 (NIH/3T3 BTK WT cells): > 50 nM | IC50 (Ramos cells with BTK WT): > 50 nM

COc1ccc(F)cc1C(=O)NCc1ccc(-c2nc(C(C)C(F)(F)F)c(-c3ccc(F)cn3)c3[nH]nc(N)c23)cc1 (centres unmarked) [Example 13, N-(4-(3-amino-7-(5-fluoropyridin-2-yl)-6-(1,1,1-trifluoropropan-2-yl)-1H-pyrazolo[4,3-c]pyridin-4-yl)benzyl)-5-fluoro-2-methoxybenzamide]
IC50 (NIH/3T3 BTK C481S cells): > 50 nM | IC50 (NIH/3T3 BTK WT cells): > 50 nM | IC50 (Ramos cells with BTK WT): > 50 nM

COc1ccc(F)cc1C(=O)NCc1ccc(-c2nc(C(C)C(F)(F)F)c(-c3ccccc3)c3[nH]nc(N)c23)cc1 (centres unmarked) [Example 14, N-(4-(3-amino-7-phenyl-6-(1,1,1-trifluoropropan-2-yl)-1H-pyrazolo[4,3-c]pyridin-4-yl)benzyl)-5-fluoro-2-methoxybenzamide]
IC50 (NIH/3T3 BTK C481S cells): > 50 nM | IC50 (NIH/3T3 BTK WT cells): > 50 nM | IC50 (Ramos cells with BTK WT): > 50 nM

COc1ccc(F)cc1C(=O)NCc1ccc(-c2ncc(-c3cncnc3)c3[nH]nc(N)c23)cc1 [Example 16, N-(4-(3-amino-7-(pyrimidin-5-yl)-1H-pyrazolo[4,3-c]pyridin-4-yl)benzyl)-5-fluoro-2-methoxybenzamide]
IC50 (NIH/3T3 BTK C481S cells): > 50 nM | IC50 (NIH/3T3 BTK WT cells): > 50 nM | IC50 (Ramos cells with BTK WT): > 50 nM

COc1ccc(F)cc1C(=O)NCc1ccc(-c2ncc(-c3ccnnc3)c3[nH]nc(N)c23)cc1 [Example 20, N-(4-(3-amino-7-(pyridazin-4-yl)-1H-pyrazolo[4,3-c]pyridin-4-yl)benzyl)-5-fluoro-2-methoxybenzamide]
IC50 (NIH/3T3 BTK C481S cells): > 50 nM | IC50 (NIH/3T3 BTK WT cells): > 50 nM | IC50 (Ramos cells with BTK WT): > 50 nM

COc1ccc(F)cc1C(=O)NCc1ccc(-c2ncc(-c3ccnn3C)c3[nH]nc(N)c23)cc1 [Example 32, N-(4-(3-amino-7-(1-methyl-1H-pyrazol-5-yl)-1H-pyrazolo[4,3-c]pyridin-4-yl)benzyl)-5-fluoro-2-methoxybenzamide]
IC50 (NIH/3T3 BTK C481S cells): > 50 nM | IC50 (NIH/3T3 BTK WT cells): > 50 nM | IC50 (Ramos cells with BTK WT): > 50 nM

COc1ccc(F)cc1C(=O)NCc1ccc(-c2ncc(-c3cnn4ccccc34)c3[nH]nc(N)c23)cc1 [Example 33, N-(4-(3-amino-7-(pyrazolo[1,5-a]pyridin-3-yl)-1H-pyrazolo[4,3-c]pyridin-4-yl)benzyl)-5-fluoro-2-methoxybenzamide]
IC50 (NIH/3T3 BTK C481S cells): > 50 nM | IC50 (NIH/3T3 BTK WT cells): > 50 nM | IC50 (Ramos cells with BTK WT): > 50 nM

COc1ccc(F)cc1C(=O)NCc1ccc(-c2ncc(-c3cnc4ccnn4c3)c3[nH]nc(N)c23)cc1 [Example 34, N-(4-(3-amino-7-(pyrazolo[1,5-a]pyrimidin-6-yl)-1H-pyrazolo[4,3-c]pyridin-4-yl)benzyl)-5-fluoro-2-methoxybenzamide]
IC50 (NIH/3T3 BTK C481S cells): > 50 nM | IC50 (NIH/3T3 BTK WT cells): > 50 nM | IC50 (Ramos cells with BTK WT): > 50 nM

COc1ccc(F)cc1C(=O)NCc1ccc(-c2ncc(-c3cccnn3)c3[nH]nc(N)c23)cc1 [Example 40, N-(4-(3-amino-7-(pyridazin-3-yl)-1H-pyrazolo[4,3-c]pyridin-4-yl)benzyl)-5-fluoro-2-methoxybenzamide]
IC50 (NIH/3T3 BTK C481S cells): > 50 nM | IC50 (NIH/3T3 BTK WT cells): 10 to 50 nM | IC50 (Ramos cells with BTK WT): 10 to 50 nM

COc1ccc(F)cc1C(=O)NCc1ccc(-c2ncc(-c3cnc4ccccn34)c3[nH]nc(N)c23)cc1 [Example 55, N-(4-(3-amino-7-(imidazo[1,2-a]pyridin-3-yl)-1H-pyrazolo[4,3-c]pyridin-4-yl)benzyl)-5-fluoro-2-methoxybenzamide]
IC50 (NIH/3T3 BTK C481S cells): > 50 nM | IC50 (NIH/3T3 BTK WT cells): > 50 nM | IC50 (Ramos cells with BTK WT): > 50 nM

COc1ccc(F)cc1C(=O)NCc1ccc(-c2ncc(-c3cnc4ncccn34)c3[nH]nc(N)c23)cc1 [Example 63, N-(4-(3-amino-7-(imidazo[1,2-a]pyrimidin-3-yl)-1H-pyrazolo[4,3-c]pyridin-4-yl)benzyl)-5-fluoro-2-methoxybenzamide]
IC50 (NIH/3T3 BTK C481S cells): > 50 nM | IC50 (NIH/3T3 BTK WT cells): > 50 nM | IC50 (Ramos cells with BTK WT): > 50 nM

COc1ccc(F)cc1C(=O)NCc1ccc(-c2ncc(-c3cnc4cnccn34)c3[nH]nc(N)c23)cc1 [Example 64, N-(4-(3-amino-7-(imidazo[1,2-a]pyrazin-3-yl)-1H-pyrazolo[4,3-c]pyridin-4-yl)benzyl)-5-fluoro-2-methoxybenzamide]
IC50 (NIH/3T3 BTK C481S cells): > 50 nM | IC50 (NIH/3T3 BTK WT cells): > 50 nM | IC50 (Ramos cells with BTK WT): > 50 nM

COc1ccc(F)cc1C(=O)NCc1ccc(-c2ncc(C(=O)NC3CC3)c3[nH]nc(N)c23)cc1 [Example 81, 3-amino-N-cyclopropyl-4-(4-((5-fluoro-2-methoxybenzoylamino)methyl)phenyl)-1H-pyrazolo[4,3-c]pyridine-7-carboxamide]
IC50 (NIH/3T3 BTK C481S cells): > 50 nM | IC50 (NIH/3T3 BTK WT cells): > 50 nM | IC50 (Ramos cells with BTK WT): > 50 nM

COc1ccc(F)cc1C(=O)NCc1ccc(-c2cc(C(C)C(F)(F)F)cc3[nH]nc(N)c23)cc1 (centres unmarked) [Example 86, N-(4-(3-amino-6-(1,1,1-trifluoropropan-2-yl)-1H-indazol-4-yl)benzyl)-5-fluoro-2-methoxybenzamide]
IC50 (NIH/3T3 BTK C481S cells): > 50 nM | IC50 (NIH/3T3 BTK WT cells): > 50 nM
